# Reference: PMC6540907, “The nuclear export inhibitor aminoratjadone is a potent effector in extracellular-targeted drug conjugates” (Chemical Science, 2019)
# Values joined by “and” are separate entries in the source; they are usually repeats but may differ in a detail not shown here. Identical values can stand only once. Like-named read-outs stand apart in the source and are kept apart here.
# Tests used:
# A-549 = assay: cells; type: cell-based, human
# Protocol: (§1) Biological evaluation of the compounds […]
# (§2) serial dilutions of the test compound were given to 120 µL of suspended cells (50.000/mL) in wells of 96-well plates. After 5 days of incubation growth inhibition (IC50) was determined using an MTT assay.9
# (§3) Table S1:Medium conditions for different cell types.
# (§4) Cell type Medium Additives
# (§5) L-929 (DSMZ ACC 2) DME medium (high glucose) (Gibco) 10% fetal calf serum (Gibco) SKOV-3 DSMZ ATCC HTB Mc Coys-Medium (Gibco) 10% fetal calf serum (Gibco) […]
# (§6) A549 (DSMZ ACC 107) DME medium (high glucose) (Gibco) 10% fetal calf serum (Gibco)
# KB-3.1 = assay: cells; type: cell-based, human
# Protocol: as §1, §2, §3, §4, §5, §6
# MCF-7 = assay: cells; type: cell-based, human
# Protocol: as §1, §2, §3, §4, §5, §6
# SK-OV-3 = assay: cells; type: cell-based, human; settings: Homo sapiens, SK-OV-3, read-out: Antiproliferative activity IC50
# Protocol: as §1, §2, §3, §4, §5, §6
# L-929 = assay: Cell proliferation assay (MTT, 5 days); type: cell-based, murine
# Protocol: as §1, §2, §3, §4, §5
# A549 (DSMZ ACC 107) DME medium (high glucose) (Gibco) 10% fetal calf serum (Gibco) KB 3.1 (DSMZ ACC 158) DME medium (high glucose) (Gibco) 10% fetal calf serum (Gibco) Ratjadone Compound Antiproliferative activity IC50 [nM]
# KB-3.1: human cervix carcinoma, KB-V1: multi-drug-resistant human cervix carcinoma, K-562: human chronic myelogenous leukemia cell, PC-3: human prostate carcinoma, L-929: murine fibroblast
# Figure S8: Structures of Ratjadone A-D and their antiproliferative activity (IC50 values in nM). Data published by Köster et al.10
# CRM1 = CRM1 (Homo sapiens, UniProt O14980); assay: Nuclear export inhibition, fluorescent translocation biosensor in recombinant HeLa cells; type: cell-based; set-up: This cellular assay uses HeLa cells that express a recombinant fusion protein; endogenous in cells; host or cells: HeLa cells stably expressing the NLS-GST-GFP-RevNES translocation biosensor (HeLaRevBio); settings: nuclear export inhibition IC50, HeLa cells expressing translocation biosensor, 1 h incubation
# KB-3.1 cancer cells = assay: Cell proliferation assay under folate free conditions (MTT); type: cell-based, human; settings: KB-3.1, folate receptor-positive, read-out: Antiproliferative activity IC50 of folate-ratjadone conjugates
# Protocol: Cell proliferation assay under folate free conditions
# KB 3.1 (DSMZ ACC 158) cells were cultivated at 37 °C and 10 % CO2 in RMPI-medium without folic acid (Gibco) with 10% fetal calf serum (Gibco). 120 µL of suspended cells (100.000/mL) were seeded in wells of 96-well plates and after 24 h at 37 °C and 10 % CO2 the medium was removed, the cells were washed with PBS and RPMI-medium without folic acid (Gibco) + 10% dialyzed fetal calf serum (Sigma) were added to the cells, before after additional 24 h at 37°C and 10 % CO2 60 µL of serial dilutions of the test compound were given to cells. After 1, 2 and 5 days of incubation growth inhibition (IC50) was determined using an […]
# [1] = Homo sapiens, A549, read-out: Antiproliferative activity IC50, A-549 human lung carcinoma
# [2] = Homo sapiens, KB 3-1, read-out: Antiproliferative activity IC50, KB-3.1 human cervix carcinoma
# [3] = Homo sapiens, MCF7, read-out: Antiproliferative activity IC50, MCF-7 human breast carcinoma
# [4] = Mus musculus, L929, read-out: Antiproliferative activity IC50, L-929 murine fibroblast
# [5] = KB 3-1, KB-3.1 human cervix carcinoma, read-out: Antiproliferative activity IC50
# [6] = L-929 murine fibroblast, read-out: Antiproliferative activity IC50
# [7] = Mus musculus, L929, L-929 murine fibroblast, read-out: Antiproliferative activity IC50
# Sequence of CRM1 (O14980 whole entry, the tested form may be a part): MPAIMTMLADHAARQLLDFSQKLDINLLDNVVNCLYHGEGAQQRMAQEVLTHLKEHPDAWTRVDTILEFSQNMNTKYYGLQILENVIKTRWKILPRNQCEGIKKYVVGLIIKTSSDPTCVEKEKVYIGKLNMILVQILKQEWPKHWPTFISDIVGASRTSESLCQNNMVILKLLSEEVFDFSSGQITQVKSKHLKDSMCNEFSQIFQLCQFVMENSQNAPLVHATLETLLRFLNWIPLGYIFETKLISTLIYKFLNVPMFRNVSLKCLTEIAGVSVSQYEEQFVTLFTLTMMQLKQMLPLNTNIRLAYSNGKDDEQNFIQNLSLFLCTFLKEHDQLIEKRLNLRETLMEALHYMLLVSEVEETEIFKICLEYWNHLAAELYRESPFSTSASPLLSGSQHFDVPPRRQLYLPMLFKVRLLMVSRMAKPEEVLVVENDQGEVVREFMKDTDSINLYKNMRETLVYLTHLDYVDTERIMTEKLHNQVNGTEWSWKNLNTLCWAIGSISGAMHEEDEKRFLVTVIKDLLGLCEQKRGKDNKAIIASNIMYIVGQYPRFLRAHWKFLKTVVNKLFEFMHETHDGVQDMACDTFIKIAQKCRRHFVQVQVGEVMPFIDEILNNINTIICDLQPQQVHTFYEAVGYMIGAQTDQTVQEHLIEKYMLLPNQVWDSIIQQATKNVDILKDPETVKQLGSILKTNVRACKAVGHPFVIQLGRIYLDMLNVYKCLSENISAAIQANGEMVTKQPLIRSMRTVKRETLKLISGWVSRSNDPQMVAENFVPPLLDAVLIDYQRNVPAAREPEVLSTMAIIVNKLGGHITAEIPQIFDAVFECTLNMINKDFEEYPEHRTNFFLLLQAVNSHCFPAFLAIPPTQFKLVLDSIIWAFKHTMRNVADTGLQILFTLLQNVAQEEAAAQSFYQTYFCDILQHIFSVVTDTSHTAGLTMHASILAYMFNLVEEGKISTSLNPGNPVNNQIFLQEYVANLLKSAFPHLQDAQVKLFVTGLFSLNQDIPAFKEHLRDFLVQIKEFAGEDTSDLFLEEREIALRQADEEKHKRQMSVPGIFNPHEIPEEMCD
SMILES,IC50 (A-549; [1]),IC50 (KB-3.1; [2]),IC50 (MCF-7; [3]),IC50 (SK-OV-3),IC50 (CRM1),IC50 (KB-3.1 cancer cells),also measured
"C/C=C/[C@@H]1O[C@H](C(=O)/C=C/C=C(\C)C[C@@H](C)/C=C(C)\C=C\[C@H]2CC=CC(=O)O2)C[C@@H](O)[C@@H]1C [Compound 13, 16-oxoratjadone]",1.76 nM,2.57 nM,0.22 nM,0.24 nM,52.5 nM,–,"IC50 (L-929; [4]): 12.6 nM; IC50 (L-929; read-out: Antiproliferative activity IC50, L-929 murine fibroblast): 12.6 nM"
"C/C=C/[C@@H]1O[C@H]([C@H](O)/C=C/C=C(\C)C[C@@H](C)/C=C(C)\C=C\[C@H]2CC=CC(=O)O2)CC(=O)[C@@H]1C [Compound 14, 19-oxoratjadone]",0.1 nM,0.36 nM,0.48 nM,0.16 nM,13.3 nM,–,IC50 (L-929; [4]): 1.15 nM
"C/C=C/[C@@H]1O[C@H](C(=O)/C=C/C=C(\C)C[C@@H](C)/C=C(C)\C=C\[C@H]2CC=CC(=O)O2)CC(=O)[C@@H]1C [Compound 15, 16,19-dioxoratjadone]",9.72 nM,3.98 nM,2.87 nM,1.59 nM,17.5 nM,–,IC50 (L-929; [4]): 24.3 nM
C/C=C/[C@@H]1O[C@H]([C@H](N)/C=C/C=C(\C)C[C@@H](C)/C=C(C)\C=C\[C@H](O)CC(N)CC(=O)OC)C[C@@H](O)[C@@H]1C (stereo partly shown) [Compound 18],–,–,–,–,–,–,IC50 (KB-3.1; [5]): 116 nM; IC50 (L-929; [6]): 3310 nM; IC50 (L-929; [7]): 3310 nM
C/C=C/[C@@H]1O[C@H]([C@@H](N)/C=C/C=C(\C)C[C@@H](C)/C=C(C)\C=C\[C@H](O)CC(N)CC(=O)OC)C[C@@H](O)[C@@H]1C (stereo partly shown) [Compound 19],–,–,–,–,–,–,IC50 (KB-3.1; [5]): 165 nM; IC50 (L-929; [6]): 1320 nM; IC50 (L-929; [7]): 1320 nM
C#CCCC(=O)N[C@H](/C=C/C=C(\C)C[C@@H](C)/C=C(C)\C=C\[C@H]1CC=CC(=O)O1)[C@@H]1C[C@@H](O)[C@H](C)[C@H](/C=C/C)O1 [Compound 20],0.58 nM,1.05 nM,0.4 nM,0.44 nM,23.2 nM,–,–
C#CCCOC(=O)N[C@@H](/C=C/C=C(\C)C[C@@H](C)/C=C(C)\C=C\[C@H]1CC=CC(=O)O1)[C@@H]1C[C@@H](O)[C@H](C)[C@H](/C=C/C)O1 [Compound 22],2.45 nM,1.23 nM,0.62 nM,1.2 nM,12 nM,–,–
"CC=CC1OC(C(C=CC=C(C)CC(C)C=C(C)C=CC2CC=CC(=O)O2)NC(=O)OCc2ccc(NC(=O)C(CCCNC(N)=O)NC(=O)C(NC(=O)OCC3C4CCC#CCCC43)C(C)C)cc2)CC(O)C1C (stereo not drawn) [Compound 25, BCN-O(CO)HN-Val-Cit-pABO(CO)-16R-Aminoratjadone]",39.5 nM,25.1 nM,20.2 nM,34.7 nM,246 nM and 346 nM,–,"IC50 (A-549; read-out: Antiproliferative activity IC50, A-549 human lung carcinoma): 39.5 nM; IC50 (KB-3.1; read-out: Antiproliferative activity IC50, KB-3.1 human cervix carcinoma): 25.1 nM; IC50 (MCF-7; read-out: Antiproliferative activity IC50, MCF-7 human breast carcinoma): 20.2 nM"
"C/C=C/[C@@H]1O[C@H]([C@@H](/C=C/C=C(\C)C[C@@H](C)/C=C(C)\C=C\[C@H]2CC=CC(=O)O2)NC(=O)CCSSc2ccccn2)C[C@@H](O)[C@@H]1C [Compound 31, 2-PySS(CH2)2(CO)-16R-Aminoratjadone]",30.6 nM,8.8 nM,26 nM,24.6 nM,44.1 nM,–,–
"C/C=C/[C@@H]1O[C@H]([C@H](O)/C=C/C=C(\C)C[C@@H](C)/C=C(C)\C=C\[C@H]2CC=CC(=O)O2)CC(N)[C@@H]1C (stereo partly shown) [Compound 33, 19-aminoratjadone]",4.39 nM,6.67 nM,2.1 nM,1.4 nM,70 nM,–,–
"C#CCNC1C[C@@H]([C@H](O)/C=C/C=C(\C)C[C@@H](C)/C=C(C)\C=C\[C@H]2CC=CC(=O)O2)O[C@@H](/C=C/C)[C@H]1C (stereo partly shown) [Compound 35, N-Propargyl-19-aminoratjadone]",1.12 nM,1.23 nM,1.31 nM,2.63 nM,18.3 nM,–,–
C/C=C/[C@@H]1O[C@H]([C@@H](/C=C/C=C(\C)C[C@@H](C)/C=C(C)\C=C\[C@H]2CC=CC(=O)O2)NC(=O)OCc2ccc(NC(=O)[C@H](CCCNC(N)=O)NC(=O)[C@@H](NC(=O)OC[C@@H]3[C@@H]4CCc5nnn(-c6ccc(C(=O)NCCCC[C@H](NC(=O)CC[C@H](NC(=O)c7ccc(NCc8cnc9nc(N)nc(O)c9n8)cc7)C(=O)O)C(=O)N[C@H](CCCCN)C(=O)O)cc6)c5CC[C@@H]43)C(C)C)cc2)C[C@@H](O)[C@@H]1C [FA-8-Val-Cit-pABA-16R-aminoratjadone],–,–,–,–,–,39.9 nM,–
C/C=C/[C@@H]1O[C@H]([C@@H](/C=C/C=C(\C)C[C@@H](C)/C=C(C)\C=C\[C@H]2CC=CC(=O)O2)NC(=O)OCc2ccc(NC(=O)[C@H](CCCNC(N)=O)NC(=O)[C@@H](NC(=O)OC[C@@H]3[C@@H]4CCc5nnn(CCC[C@H](NC(=O)CC[C@H](NC(=O)c6ccc(NCc7cnc8nc(N)nc(O)c8n7)cc6)C(=O)O)C(=O)N[C@H](CCCCN)C(=O)O)c5CC[C@@H]43)C(C)C)cc2)C[C@@H](O)[C@@H]1C [FA-9-Val-Cit-pABA-16R-aminoratjadone],–,–,–,–,–,50.9 nM,–
C/C=C/[C@@H]1O[C@H]([C@@H](/C=C/C=C(\C)C[C@@H](C)/C=C(C)\C=C\[C@H]2CC=CC(=O)O2)NC(=O)OCc2ccc(NC(=O)[C@H](CCCNC(N)=O)NC(=O)[C@@H](NC(=O)OCC3C4CCc5nnn(CCC[C@H](NC(=O)[C@@H](CC(=O)O)NC(=O)[C@@H](CC(=O)O)NC(=O)[C@@H](CC(=O)O)NC(=O)CC[C@H](NC(=O)c6ccc(NCc7cnc8nc(N)nc(O)c8n7)cc6)C(=O)O)C(=O)N[C@H](CC(=O)O)C(=O)N[C@H](CC(=O)O)C(=O)N[C@H](CCCCN)C(=O)O)c5CCC43)C(C)C)cc2)C[C@@H](O)[C@@H]1C (stereo partly drawn) [FA-10-Val-Cit-pABA-16R-aminoratjadone],–,–,–,–,–,35.3 nM,–
C/C=C/[C@@H]1O[C@H]([C@@H](/C=C/C=C(\C)C[C@@H](C)/C=C(C)\C=C\[C@H]2CC=CC(=O)O2)NC(=O)OCc2ccc(NC(=O)[C@H](CCCNC(N)=O)NC(=O)[C@@H](NC(=O)OCC3C4CCc5nnn(CCC[C@H](NC(=O)[C@@H](CC(=O)O)NC(=O)[C@@H](CC(=O)O)NC(=O)[C@H](CCCn6nnc7c6CCC6C(CC7)C6COC(=O)N[C@H](C(=O)N[C@@H](CCCNC(N)=O)C(=O)Nc6ccc(COC(=O)N[C@H](/C=C/C=C(\C)C[C@@H](C)/C=C(C)\C=C\[C@H]7CC=CC(=O)O7)[C@@H]7C[C@@H](O)[C@H](C)[C@H](/C=C/C)O7)cc6)C(C)C)NC(=O)[C@@H](CC(=O)O)NC(=O)[C@@H](CC(=O)O)NC(=O)[C@H](CCCn6nnc7c6CCC6C(CC7)C6COC(=O)N[C@H](C(=O)N[C@@H](CCCNC(N)=O)C(=O)Nc6ccc(COC(=O)N[C@H](/C=C/C=C(\C)C[C@@H](C)/C=C(C)\C=C\[C@H]7CC=CC(=O)O7)[C@@H]7C[C@@H](O)[C@H](C)[C@H](/C=C/C)O7)cc6)C(C)C)NC(=O)[C@@H](CC(=O)O)NC(=O)[C@@H](CC(=O)O)NC(=O)CC[C@H](NC(=O)c6ccc(NCc7cnc8nc(N)nc(O)c8n7)cc6)C(=O)O)C(=O)O)c5CCC43)C(C)C)cc2)C[C@@H](O)[C@@H]1C (stereo partly drawn) [FA-11-(Val-Cit-pABA-16R-aminoratjadone)3],–,–,–,–,–,45 nM,–
C/C=C/[C@@H]1O[C@H]([C@@H](/C=C/C=C(\C)C[C@@H](C)/C=C(C)\C=C\[C@H]2CC=CC(=O)O2)NC(=O)CCSSC[C@H](NC(=O)CC[C@H](NC(=O)c2ccc(NCc3cnc4nc(N)nc(O)c4n3)cc2)C(=O)O)C(=O)O)C[C@@H](O)[C@@H]1C [FA-SS-16R-aminoratjadone],–,–,–,–,–,295 nM,IC50 (KB-3.1 cancer cells; listed as FA-SS-16R-Aminoratjadone): 295 nM
